We go through three molecules from patent US8785478B2, “Viral polymerase inhibitors” (Biota Scientific Management Pty Ltd, priority 2012, dated 2014).

SMILES strings stand for the structures. In brackets after ≈: the same amount, converted by molar mass. Read-outs that look alike come from different tables or passages of the source.

The subject of data set [1] is subgenomic genotype 1a (H77) replicon cell line. The data set can be described thus: HCV replicon assay, genotype 1a (Renilla luciferase). The class given is cell-based. As to conditions: Hepatitis C virus; genotype 1a replicon; read-out: G1a (EC50 μM). How it is done:
(§1) A genotype 1b (Con 1) subgenomic replicon cell line based on Blight et al., Science 2000 290: 1972-1974, modified to express a Renilla luciferase reporter gene was used to assess antiviral activity of test compounds. Cell cultures were maintained in a sub-confluent state in DMEM with glutamine, 10% heat-inactivated foetal bovine serum (FBS) and G418 (Geneticin®).
(§2) For assay, cells were seeded at a density of 7000 cells/well into 96 well tissue culture trays in culture media lacking G418. Compounds were tested in a three fold dilution series, for example starting from 50 uM. After 72 hours incubation at 37° C. and 5% CO2, Renilla luciferase activity was quantified via the Promega Renilla Luciferase or Renilla-Glo™ Luciferase Assay Systems (Promega corporation. The same method was employed for replicon assays using subgenomic genotype 1a (H77) and 2a (JFH-1) replicon cell lines with a seeding cell density of 5000 cells/well for the 2a cell lines.
(§3) The compound concentration that reduced luciferase activity by 50% (EC50) was calculated using non-linear regression.
In general terms: A replicon is a self-replicating genome or part of one, used to study replication in cells.

In data set [2] the test system is subgenomic genotype 2a (JFH-1) replicon cell line. Description: HCV replicon assay, genotype 2a (Renilla luciferase). Type of data set: cell-based. The following applies: Hepatitis C virus; genotype 2a replicon; read-out: G2a (EC50 μM). The procedure:
as §1, §2, §3

The nature of data set [3]: Aqueous solubility (laser nephelometry). The following applies: for solubility at 30 min: aqueous assay buffer with 1% DMSO, kinetic from dmso stock, 30 minute incubation at 25° C.; for solubility in words: at both pH2 and pH 6.5. The class given is physicochemical. The procedure: Test compounds prepared in DMSO were screened in duplicate over a range of concentrations (1.6-100 ug/mL) in different aqueous media (for example a pH6.5 buffers which are relevant to the stomach and upper regions of the small intestine and therefore important when predicting the amount of drug likely to be in solution following oral administration). Test compounds were serially diluted in 100% DMSO ranging from 10-0.16 mg/mL. These titrated DMSO stocks were then further diluted 1:100 with assay buffer and added to test plates (UV Star Griener 384 well plates), maintaining the DMSO concentration at 1%.

The target of data set [4] is T1, 1b (BK) NS5BΔ21 (Hepatitis C virus genotype 1b, UniProt P26663).
T1 construct: 100 nM, 1b (BK) NS5BΔ21
T1 sequence (P26663 2420-2989, stated change not applied): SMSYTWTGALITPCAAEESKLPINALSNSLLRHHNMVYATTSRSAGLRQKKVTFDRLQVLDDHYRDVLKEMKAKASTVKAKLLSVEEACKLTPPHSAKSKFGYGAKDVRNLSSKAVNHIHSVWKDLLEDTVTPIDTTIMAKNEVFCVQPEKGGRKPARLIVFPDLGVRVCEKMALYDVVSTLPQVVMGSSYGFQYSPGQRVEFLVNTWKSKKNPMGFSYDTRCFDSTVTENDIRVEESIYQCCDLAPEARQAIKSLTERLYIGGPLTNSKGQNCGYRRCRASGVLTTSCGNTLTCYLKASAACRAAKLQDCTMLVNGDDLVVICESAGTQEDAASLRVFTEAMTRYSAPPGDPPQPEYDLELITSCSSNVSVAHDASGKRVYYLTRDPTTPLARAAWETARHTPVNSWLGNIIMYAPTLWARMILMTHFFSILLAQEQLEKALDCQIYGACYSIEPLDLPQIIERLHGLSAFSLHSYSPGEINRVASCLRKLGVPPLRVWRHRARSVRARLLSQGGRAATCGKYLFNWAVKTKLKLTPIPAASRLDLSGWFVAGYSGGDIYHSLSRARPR
The data set can be described thus: HCV Polymerase Inhibition Assay. Type of data set: biochemical. How it is done: HCV polymerase reactions were carried out using a modified method of Howe et al., Antimicrobial Agents and Chemotherapy 2004 48(12): 4813-4821. Reactions contained a final concentration of, 0.5% DMSO, 100 nM, 1b (BK) NS5BΔ21, 20 mM Tris-HCl pH 7.5, 5 mM MgCl2, 5 mM MnCl2, 3 mM DTT, 0.05% BSA, 0.2 U/μL RNasin, 10 μg/mL Poly(rC) template, GTP (at Km) and 0.05 μCi/μL ^33P-GTP in a total reaction volume of 50 μL. Compounds were tested in a three fold dilution series, for example starting from 50 μM. Reactions were initiated with the addition of GTP and terminated after 90 min with 50 μL ice cold 0.2 M EDTA. Terminated reactions were transferred to DEAE 96-well filter plates, unincorporated nucleotides washed from the filters and 50 μL scintillation fluid added prior to reading on a scintillation counter. The compound concentration that reduced ^33P-GTP incorporation by 50% (IC50) was calculated using non-linear regression.

Data set [5] relates to genotype 1b (Con 1) subgenomic replicon cell line. Description: HCV replicon assay, genotype 1b (Renilla luciferase). The class given is cell-based. As to conditions: Hepatitis C virus, genotype 1b replicon. The procedure:
as §1, §2, §3

Data set [6] is described as follows: Cytotoxicity analysis (MTT). The class given is cell-based. As to conditions: genotype 1b replicon cells, three days, read-out: G1b (CC50 μM). How it is done: Cytotoxicity of compounds against genotype 1b replicon cells was determined via metabolism of the vital dye 3-(4,5-dimethylthiaxol-2-yl)-2,5-diphenyltetrazolium bromide (MTT, for example see Watanabe et al., Journal of Virological Methods 1994 48:257-265). Plates were prepared as described for the HCV Replicon assay and cytotoxicity of the test article was evaluated after three days. MTT was added to assay plates followed by three hour incubation at 37° C. Wells were aspirated to dryness and the formazan dye dissolved by the addition of isopropanol. Absorbance values were read at 540/690 nm). The compound concentration that reduced cell viability by 50% (CC50) was calculated using non-linear regression.

Setting [7] is: aqueous buffer, pH 6.5, 1% DMSO, read-out: Solubility pH 6.5.
The mark [8] stands for this setting: simulated gastric fluid, pH 2, 1% DMSO, read-out: Solubility pH 2.
Where [9] appears, read: 1b polymerase IC50 (μM) range, genotype 1b NS5B, 33P-GTP incorporation.
Setting [10] is: NS5B G1b (IC50 μM), genotype 1b polymerase.
Setting [11] is: 72 hours, read-out: genotype 1b EC50 (μM) range.

For the molecule `CCN(c1cc2nn(-c3ccc(C)cn3)c(C(=O)NC)c2cc1C1CC1)S(C)(=O)=O` [Compound 5, 5-cyclopropyl-6-[ethyl(methylsulfonyl)amino]-N-methyl-2-(5-methylpyridin-2-yl)-2H-indazole-3-carboxamide], the EC50 (usually the concentration at which the effect is half-maximal) in data set [1] was 0.068 µM; in data set [2] it was 0.147 µM; in data set [5] (setting [11]), < 0.1 µM; in data set [5] (read-out: G1b (EC50 μM)) it was 0.03 µM. In addition, the solubility at 30 min in data set [3] (setting [7]) and in data set [3] (setting [8]) was > 100 µg/mL each time. For the same molecule, the solubility in words result in data set [3] was “good solubility”. For the same molecule, the figures for the IC50 in data set [4] (setting [9]) and in data set [4] (setting [10]) were 0.1 to 0.49 µM and 0.283 µM, respectively. The “times more potent than Compound A” value in data set [4] (in each of the HCV assays tested (polymerase, replicon)) is “at least 10 times”. In addition, in data set [6], the CC50 – broadly, the concentration at which the toxic effect on the cells reaches its halfway point – at 3 days was > 50 µM.

For the molecule `CNC(=O)c1c2cc(C3CC3)c(N(CCC3(C)COC3)S(C)(=O)=O)cc2nn1-c1ccc(C)cn1` [Compound 11, 5-cyclopropyl-N-methyl-6-{[2-(3-methyloxetan-3-yl)ethyl](methylsulfonyl)amino}-2-(5-methylpyridin-2-yl)-2H-indazole-3-carboxamide], the EC50 was 0.013 µM in data set [1], 0.183 µM in data set [2], < 0.1 µM in data set [5] (setting [11]) and 0.028 µM in data set [5] (read-out: G1b (EC50 μM)). The solubility at 30 min in data set [3] (setting [7]) and in data set [3] (setting [8]) was 50 to 100 µg/mL (≈ 100 to 201 µM) throughout. Besides, the values for the half-inhibitory concentration (IC50) in data set [4] (setting [9]) and in data set [4] (setting [10]) were 0.1 to 0.49 µM and 0.4 µM, respectively. In data set [6], the CC50 at 3 days is > 50 µM.

`CCN(c1cc2nn(-c3ccc(C)nc3)c(C(=O)NC)c2cc1C1CC1)S(C)(=O)=O` [Compound A, 5-Cyclopropyl-6-[ethyl(methylsulfonyl)amino]-N-methyl-2-(6-methylpyridin-3-yl)-2H-indazole-3-carboxamide, reference compound]: the EC50 in data set [1] was determined as 3.17 µM; in data set [2], 3.59 µM; in data set [5] (read-out: G1b (EC50 μM)), 0.774 µM. For the same molecule, the figures for the solubility at 30 min in data set [3] (setting [7]) and in data set [3] (setting [8]) were 6.3 to 12.5 µg/mL (≈ 14.7 to 29.2 µM) and < 1.6 µg/mL, respectively. In addition, the solubility in words entry in data set [3] was “very poorly soluble”. Moreover, half-maximal inhibition in data set [4] (setting [10]) (IC50) required 3.36 µM. The CC50 at 3 days in data set [6] was > 50 µM.
